The target in this test is T1, met (HGF receptor) in human gastric cancer cells MKN45 (Homo sapiens, UniProt P08581).
T1 construct: endogenous in cells; host or cells: MKN45 human gastric cancer cells
Nature of the test: Inhibitory activity against met-autophosphorylation using ELISA method (2), MKN45 cells, HGF-independent. It is filed as cell-based. Put shortly:
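Met autophosphorylation was read by sandwich ELISA: phosphotyrosine capture (PY20), anti-HGF receptor detection, peroxidase read-out at 450 nm. Lysates came from MKN45 gastric cancer cells kept in 0.1% FCS RPMI and treated 1 h at 37 °C with test compound, with no added HGF.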

T1 sequence (P08581 25-1390): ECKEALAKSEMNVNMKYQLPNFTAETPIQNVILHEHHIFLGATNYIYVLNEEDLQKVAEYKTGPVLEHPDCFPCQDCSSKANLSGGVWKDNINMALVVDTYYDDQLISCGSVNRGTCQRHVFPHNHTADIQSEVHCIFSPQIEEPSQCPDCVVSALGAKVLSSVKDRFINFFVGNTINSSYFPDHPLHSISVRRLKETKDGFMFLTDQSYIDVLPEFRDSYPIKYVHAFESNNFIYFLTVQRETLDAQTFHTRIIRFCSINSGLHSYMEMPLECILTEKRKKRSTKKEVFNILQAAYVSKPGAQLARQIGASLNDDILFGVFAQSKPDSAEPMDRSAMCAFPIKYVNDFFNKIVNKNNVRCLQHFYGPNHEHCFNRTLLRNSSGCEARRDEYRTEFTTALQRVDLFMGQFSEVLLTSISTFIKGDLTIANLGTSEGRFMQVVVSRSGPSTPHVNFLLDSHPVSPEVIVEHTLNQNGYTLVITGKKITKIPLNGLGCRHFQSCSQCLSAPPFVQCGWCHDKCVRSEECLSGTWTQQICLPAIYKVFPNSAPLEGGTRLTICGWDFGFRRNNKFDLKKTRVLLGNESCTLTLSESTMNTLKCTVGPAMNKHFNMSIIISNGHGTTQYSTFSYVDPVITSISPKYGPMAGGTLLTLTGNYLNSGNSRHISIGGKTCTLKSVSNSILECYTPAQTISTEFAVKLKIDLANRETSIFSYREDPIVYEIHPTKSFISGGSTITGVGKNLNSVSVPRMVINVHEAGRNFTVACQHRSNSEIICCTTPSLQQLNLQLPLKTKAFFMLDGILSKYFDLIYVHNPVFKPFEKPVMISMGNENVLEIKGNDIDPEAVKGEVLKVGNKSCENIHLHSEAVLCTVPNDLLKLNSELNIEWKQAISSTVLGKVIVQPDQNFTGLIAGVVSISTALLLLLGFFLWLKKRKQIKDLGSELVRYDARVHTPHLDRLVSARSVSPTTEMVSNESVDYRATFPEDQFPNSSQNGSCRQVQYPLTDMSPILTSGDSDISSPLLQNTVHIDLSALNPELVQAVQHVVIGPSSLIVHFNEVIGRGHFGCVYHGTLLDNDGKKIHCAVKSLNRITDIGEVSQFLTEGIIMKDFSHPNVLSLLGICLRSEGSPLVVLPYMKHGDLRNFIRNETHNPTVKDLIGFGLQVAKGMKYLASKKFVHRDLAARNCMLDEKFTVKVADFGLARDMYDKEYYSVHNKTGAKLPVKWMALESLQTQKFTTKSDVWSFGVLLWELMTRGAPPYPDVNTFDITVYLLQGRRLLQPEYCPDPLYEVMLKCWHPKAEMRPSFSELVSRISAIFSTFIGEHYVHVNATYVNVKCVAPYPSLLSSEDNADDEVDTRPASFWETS

`COc1ccccc1NC(=O)CC(=O)Nc1ccc(Oc2ccnc3cc(OC)c(OC)cc23)cc1` [Example 211, N-[4-(6,7-dimethoxyquinolin-4-yloxy)phenyl]-N′-(2-methoxyphenyl)malonamide]: the concentration for half-maximal inhibition (IC50) amounted to 252 nM.
`COc1cc2nccc(Oc3ccc(NC(=O)CC(=O)NC4CCC4)cc3)c2cc1OC` [Example 212, N-cyclobutyl-N′-[4-(6,7-dimethoxyquinolin-4-yloxy)phenyl]malonamide]: the IC50 stood at 379 nM.
The figure for `COC(=O)c1cccc(NC(=O)CC(=O)Nc2ccc(Oc3ccnc4cc(OC)c(OC)cc34)cc2)c1` [Example 213, methyl 3-{2-[4-(6,7-dimethoxyquinolin-4-yloxy)phenylcarbamoyl]acetylamino}benzoate] is 2430 nM.
Take `COc1cc2nccc(Oc3ccc(NC(=O)CC(=O)NC(C)c4ccccc4)cc3)c2cc1OC` (stereo not drawn) [Example 214, N-[4-(6,7-dimethoxyquinolin-4-yloxy)phenyl]-N′-(1-phenylethyl)malonamide]: half-maximal inhibition (IC50) was put at 2530 nM.
Turning to `COc1cc2nccc(Oc3ccc(NC(=O)CC(=O)NCc4ccccc4)cc3)c2cc1OC` [Example 215, N-benzyl-N′-[4-(6,7-dimethoxyquinolin-4-yloxy)phenyl]malonamide], the IC50 came out at 1980 nM.
The figure for `COc1cc2nccc(Oc3ccc(NC(=O)CC(=O)N(C)c4ccccc4)cc3)c2cc1OC` [Example 216, N-[4-(6,7-dimethoxyquinolin-4-yloxy)phenyl]-N′-methyl-N′-phenylmalonamide] is 228 nM; for `COc1cc2nccc(Oc3ccc(NC(=O)CC(=O)NC4CCCCC4)cc3)c2cc1OC` [Example 217, N-cyclohexyl-N′-[4-(6,7-dimethoxyquinolin-4-yloxy)phenyl]malonamide] it is 333 nM.
Consider `COc1cc2nccc(Oc3ccc(NC(=O)CC(=O)NCC4CCCCC4)cc3)c2cc1OC` [Example 218, N-cyclohexylmethyl-N′-[4-(6,7-dimethoxy-quinolin-4-yloxy)phenyl]malonamide], for which it took 479 nM to reach half-maximal inhibition (IC50). This IC50 and that of the compound before are within 1.5-fold of each other.
Regarding `COc1cc2nccc(Oc3ccc(NC(=O)CC(=O)Nc4ccc(Cl)cc4)cc3)c2cc1OC` [Example 219, N-(4-chlorophenyl)-N′-[4-(6,7-dimethoxy-quinolin-4-yloxy)phenyl]malonamide], the IC50 came out at 736 nM.
As for `COc1cc2nccc(Oc3ccc(NC(=O)CC(=O)Nc4cccc(O)c4)cc3)c2cc1OC` [Example 220, N-[4-(6,7-dimethoxyquinolin-4-yloxy)phenyl]-N′-(3-hydroxyphenyl)malonamide], half-maximal inhibition (IC50) required 297 nM.
`COc1cc2nccc(Oc3ccc(NC(=O)CC(=O)NCCC(C)(C)C)cc3)c2cc1OC` [Example 221, N-[4-(6,7-dimethoxyquinolin-4-yloxy)phenyl]-N′-(3,3-dimethyl-butyl)malonamide] had a half-inhibitory concentration (IC50) of 221 nM.
Next, `COc1cc2nccc(Oc3ccc(NC(=O)CC(=O)Nc4ccc(F)cc4F)c(Cl)c3)c2cc1OC` [Example 222, N-[2-chloro-4-(6,7-dimethoxyquinolin-4-yloxy)phenyl]-N′-(2,4-difluorophenyl)malonamide]: 201 nM.
Compound `COc1cc2nccc(Oc3ccc(NC(=O)CC(=O)Nc4ccc(F)cc4F)c(C)c3)c2cc1OC` [Example 223, N-(2,4-difluorophenyl)-N′-[4-(6,7-dimethoxy-quinolin-4-yloxy)-2-methylphenyl]malonamide] displayed an IC50 of 268 nM.
Next, `COc1cc2nccc(Oc3cc(C)c(NC(=O)CC(=O)Nc4ccc(F)cc4F)cc3C)c2cc1OC` [Example 224, N-(2,4-difluorophenyl)-N′-[4-(6,7-dimethoxy-quinolin-4-yloxy)-2,5-dimethylphenyl]malonamide]: 316 nM; `COc1cc2nccc(Oc3ccc(NC(=O)C(C)C(=O)Nc4ccccc4)cc3)c2cc1OC` (stereo not drawn) [Example 225, N-[4-(6,7-dimethoxyquinolin-4-yloxy)phenyl]-2-methyl-N′-phenylmalonamide]: 281 nM.
Consider `COc1cc2nccc(Oc3ccc(NC(=O)C(C)C(=O)NC4CCCCC4)cc3)c2cc1OC` (stereo not drawn) [Example 226, N-cyclohexyl-N′-[4-(6,7-dimethoxyquinolin-4-yloxy)phenyl]-2-methylmalonamide], for which the IC50 worked out at 3230 nM.
Next, `COc1cc2nccc(Oc3ccc(NC(=O)CC(=O)Nc4cccnc4)cc3)c2cc1OC` [Example 227, N-[4-(6,7-dimethoxyquinolin-4-yloxy)phenyl]-N′-pyridin-3-ylmalonamide]: 4360 nM; `COc1cc2nccc(Oc3ccc(NC(=O)C(C)(C)C(=O)Nc4ccccc4)cc3)c2cc1OC` [Example 228, N-[4-(6,7-dimethoxyquinolin-4-yloxy)phenyl]-2,2-dimethyl-N′-phenylmalonamide]: 394 nM.
`COc1cc2nccc(Oc3ccc(NC(=O)NC(=O)Nc4ccc(F)cc4F)cc3)c2cc1OC` [Example 229, N-(2,4-difluorophenyl)-({[4-(6,7-dimethoxy-quinolin-4-yloxy)anilino]carbonyl}amino)methanamide] displayed a concentration for half-maximal inhibition (IC50) of 273 nM.
In turn, `COc1cc2nccc(Oc3ccc(NC(=O)NC(=O)Nc4ncc(C)cc4Br)cc3)c2cc1OC` [Example 230, N-(3-bromo-5-methyl-2-pyridyl)-({[4-(6,7-dimethoxyquinolin-4-yloxy)anilino]carbonyl}amino)-methanamide] yielded a half-maximal inhibitory concentration (IC50) of 340 nM. This IC50 and that of the compound before are within 1.5-fold of each other.
Turning to `COc1cc2nccc(Oc3ccc(NC(=O)NC(=O)Nc4ccc(Cl)cn4)cc3)c2cc1OC` [Example 231, N-(5-chloro-2-pyridyl)-({[4-(6,7-dimethoxy-quinolin-4-yloxy)anilino]carbonyl}amino)methanamide], the midpoint of inhibition, the IC50, lay at 329 nM. The IC50 values of the last two compounds are within 1.5-fold of each other.
`COc1cc2nccc(Oc3ccc(NC(=O)NC(=O)Nc4cc(C)on4)cc3)c2cc1OC` [Example 232, N-(5-methyl-3-isoxazolyl)-({[4-(6,7-dimethoxyquinolin-4-yloxy)anilino]carbonyl}amino)-methanamide]: the half-maximal inhibitory concentration (IC50) worked out at 256 nM.
Consider `COc1cc2nccc(Oc3ccc(NC(=O)NC(=O)Nc4ncccc4C)cc3)c2cc1OC` [Example 233, N-(3-methyl-2-pyridyl)-({[4-(6,7-dimethoxy-quinolin-4-yloxy)anilino]carbonyl}amino)methanamide], for which the 50% inhibitory concentration (IC50) was 322 nM.
For `COc1cc2nccc(Oc3ccc(NC(=O)NC(=O)Nc4cccc(C)n4)cc3)c2cc1OC` [Example 234, N-(6-methyl-2-pyridyl)-({[4-(6,7-dimethoxy-quinolin-4-yloxy)anilino]carbonyl}amino)methanamide], the half-maximal inhibitory concentration (IC50) was determined as 457 nM.
Compound `COc1cc2nccc(Oc3ccc(NC(=O)NC(=O)Nc4ccc(C)cn4)cc3)c2cc1OC` [Example 235, N-(5-methyl-2-pyridyl)-({[4-(6,7-dimethoxy-quinolin-4-yloxy)anilino]carbonyl}amino)methanamide] showed a half-inhibitory concentration (IC50) of 215 nM.
On to `COc1cc2nccc(Oc3ccc(NC(=O)NC(=O)Nc4ccccn4)cc3)c2cc1OC` [Example 236, N-(2-pyridyl)-({[4-(6,7-dimethoxyquinolin-4-yloxy)anilino]carbonyl}amino)methanamide], for which the 50% inhibitory concentration (IC50) amounted to 235 nM. This IC50 and that of the compound before are within 1.5-fold of each other.
For `COc1cc2nccc(Oc3ccc(NC(=O)NC(=O)Nc4ccnn4C)cc3)c2cc1OC` [Example 237, N-(1-methyl-1H-5-pyrazolyl)-({[4-(6,7-dimethoxyquinolin-4-yloxy)anilino]carbonyl}amino)-methanamide], the IC50 came to 1470 nM.

The record behind these values is patent US8324245B2, “Quinoline derivative and quinazoline derivative inhibiting self-phosphorylation of hepatocytus proliferator receptor, and medicinal composition containing the same” (Kyowa Hakko Kirin Co., Ltd., priority 2001, dated 2012).
